System: chronic-arthritis with adjuvant (increase in volume of the rear paws)
Assay: Anti-inflammatory activity: chronic-arthritis with adjuvant (preventative treatment)
Format: in vivo, rat
Settings: male rats aged 42 to 50 days, intra-plantar Freund type adjuvant, product orally from day 0 up to the day before killing (day 17), 24480 min
Experimental: Anti-inflammatory activity: chronic-arthritis with adjuvant (preventative treatment)
In the rat, the injection of Freund type adjuvant in a rear paw causes the rapid appearance of a primary inflammatory lesion in this paw and then, after a latency period of 13 to 15 days, the start up of a secondary arthritic affection, particularly in the other rear paw. The test was carried out on male rats aged 42 to 50 days which received an intra-plantar injection of 0.1 ml of "Freund" type adjuvant (suspension in vaseline oil of 6 mg per ml of killed mycobacterium butyricum). The animals received the product orally from day 0 (day of injection of adjuvant) up to the day before they were killed, which occured on day 17. Control arthritic animals and control normal animals received only the vehicle. The criteria of appreciation of the activity of the substances studied was the increases in volume of the injected rear paws (primary and secondary inflammation) and the non-injected ones (secondary inflammation)by comparison with the average volume of the corresponding paws of normal controls. The DA50 was determined, that is to say, the dose which reduced by 50% the increase in volume of the rear paws of the treated animals in comparison with the control animals.

SMILES	DA50 (dose which reduced by 50% the increase in volume of the rear paws of the treated animals in comparison with the control animals) [mg/k]
Cc1c(-c2ccccc2)nc(C(F)(F)F)c(C(=O)Nc2nccs2)c1O [Example 1, 4-hydroxy-5-methyl-6-phenyl-N-(2-thiazolyl)-2-trifluoromethyl-3-pyridine carboxamide]	0.3
O=C(Nc1nccs1)c1c(C(F)(F)F)nc(-c2ccccc2)c(-c2ccccc2)c1O [Example 3, 5,6-diphenyl-4-hydroxy-N-(2-thiazolyl)-2-trifluoromethyl-3-pyridine carboxamide]	15

Reference: patent US4987140A, “Pyridines” (Roussel Uclaf, priority 1987, dated 1991)
